Legend:
Format in all cases: functional, Homo sapiens
Design in all cases: dose or concentration left out as unconfirmed
Colon cancer organoid [1] = assay: Optimized Dual-Glo assay to identify co-culture induced drug vulnerabilities using donated chemical probes and chemogenomics kinase set in O20 CRC organoid and F20 CAF mono and co-culture. […] Cell viability is reported both mono and co-culture models.
Colon cancer organoid [2] = assay: Optimized Dual-Glo assay to identify co-culture induced drug vulnerabilities using donated chemical probes and chemogenomics kinase set in O14 CRC organoid and F14 CAF mono and co-culture. […] Cell viability is reported both mono and co-culture models.
Colon cancer organoid [3] = assay: Optimized Dual-Glo assay to identify co-culture induced drug vulnerabilities using donated chemical probes and chemogenomics kinase set in O06 CRC organoid and F06 CAF mono and co-culture. […] Cell viability is reported both mono and co-culture models.
[4] = Culture type Co-Culture, Transduced with Lucferase2-P2A-EGFP lentivirus
[5] = Culture type Co-Culture, Transduced with Renilla-dsRed lentivirus
[6] = Culture type Mono-Culture, Transduced with Lucferase2-P2A-EGFP lentivirus
[7] = Culture type Mono-Culture, Transduced with Renilla-dsRed lentivirus

Row | SMILES | Cell Viability (Colon cancer organoid [1]; [4]) [%] | Cell Viability (Colon cancer organoid [1]; [5]) [%] | Cell Viability (Colon cancer organoid [1]; [6]) [%] | Cell Viability (Colon cancer organoid [1]; [7]) [%] | Cell Viability (Colon cancer organoid [2]; [4]) [%] | Cell Viability (Colon cancer organoid [2]; [5]) [%] | Cell Viability (Colon cancer organoid [2]; [6]) [%] | Cell Viability (Colon cancer organoid [2]; [7]) [%] | Cell Viability (Colon cancer organoid [3]; [4]) [%] | Cell Viability (Colon cancer organoid [3]; [5]) [%] | Cell Viability (Colon cancer organoid [3]; [6]) [%] | Cell Viability (Colon cancer organoid [3]; [7]) [%]
1 | COc1cc(Nc2nccc(-c3cnn4nc(OC)ccc34)n2)cc(C(F)(F)F)c1 | 11.0854 | 189.711 | 12.7509 | 71.1906 | 8.865 | 107.014 | 18.5626 | 63.2458 | 25.4978 | 199.418 | 18.9413 | 49.3331
2 | C[C@@H]1CCNC(=O)c2cc3ccc(C(=O)Nc4nc5ccccc5n4CCCN(C)C)cc3n21 | 64.9365 | 147.158 | 51.9591 | 102.286 | 91.1023 | 83.3009 | 101.537 | 86.0489 | 65.6776 | 63.6239 | 102.952 | 73.3213
3 | COc1cc(-c2cn([C@H]3CCc4c(F)cccc4N(CC(F)(F)F)C3=O)nn2)ccc1-n1cnc(C)c1 | 119.382 | 109.286 | 102.589 | 90.6954 | 75.4426 | 112.422 | 84.8132 | 97.4006 | 117.399 | 118.336 | 87.9333 | 111.054
4 | Cn1cc(-c2[nH]c3cc(NC(=O)[C@H](N)C4CCCCC4)cc4c3c2C=NNC4=O)cn1 | 23.152 | 172.741 | 12.2596 | 94.31 | 1.93 | 159.115 | 4.927 | 82.9355 | 9.334 | 180.436 | 3.761 | 107.077
5 | CCc1cc2cc(NS(=O)(=O)c3ccc(C#N)cc3)ccc2n(CC)c1=O | 195.321 | 99.0217 | 112.066 | 92.4545 | 89.9895 | 94.6782 | 98.1459 | 101.615 | 88.2132 | 102.933 | 126.115 | 101.813
6 | O=C(Nc1ccc(-c2ccnc(Nc3ccc(N4CCOCC4)cc3)n2)cc1)[C@@H]1CCCN1 | 138.223 | 76.0213 | 82.2702 | 101.459 | 127.595 | 79.807 | 135.011 | 98.0054 | 100.254 | 96.014 | 101.806 | 108.082
7 | CC(C)(O)[C@H](F)CN1Cc2cc(NC(=O)c3cnn4cccnc34)c(N3CCOCC3)cc2C1=O | 123.767 | 88.3121 | 99.4921 | 83.0265 | 134.835 | 74.5238 | 106.331 | 78.3332 | 120.796 | 89.8431 | 75.3772 | 93.3836
8 | CN(C)C(=O)c1ccc(-c2cc(C(=O)N[C@@H]3CCc4ccccc43)no2)cc1O | 98.4389 | 104.475 | 121.813 | 120.44 | 73.2649 | 147.75 | 80.1245 | 134.73 | 113.879 | 93.2478 | 92.6679 | 134.315
9 | COc1cc(-c2cn([C@H]3CCc4ccccc4N(CC(F)(F)F)C3=O)nn2)ccc1-n1ccc(C)n1 | 70.0794 | 119.033 | 80.8006 | 95.6811 | 109.774 | 96.1466 | 102.384 | 99.9901 | 93.4988 | 122.107 | 86.5665 | 106.482
10 | C=CC(=O)Nc1ccc2[nH]c(=O)n(C3CCN(C(=O)c4ccc(-c5nc6cc[nH]c(=O)c6cc5-c5ccccc5)cc4)CC3)c2c1 | 101.159 | 80.5582 | 103.07 | 78.5683 | 111.176 | 112.94 | 102.423 | 83.7994 | 100.634 | 129.997 | 117.336 | 96.7859
11 | CN(C)C(=O)c1ccc(-c2cc(C(=O)N(C)C3CCCC3)no2)cc1O | 121.535 | 110.433 | 107.717 | 123.756 | 78.738 | 108.435 | 99.3256 | 115.997 | 126.057 | 129.278 | 114.98 | 129.58
12 | CCN(Cc1ccc(Cl)cc1)c1ncc(C(=O)NCCCN2CCCC2=O)c(NC2CCCC2)n1 | 67.2116 | 104.655 | 126.603 | 126.47 | 82.1387 | 108.641 | 123.72 | 100.116 | 130.769 | 112.754 | 126.765 | 120.519
13 | c1ccc2oc(-c3csc(C4CCN(Cc5nc6ncccc6[nH]5)CC4)n3)cc2c1 | 55.8408 | 105.216 | 98.8646 | 99.5308 | 119.834 | 111.13 | 91.6979 | 94.4275 | 118.221 | 124.83 | 91.0093 | 102.554
14 | COc1cc(Nc2nc(C)cc(-c3cnn4nc(OC)ccc34)n2)cc(C(F)(F)F)c1 | 136.021 | 99.6244 | 133.384 | 109.532 | 103.629 | 105.362 | 103.076 | 99.2277 | 131.373 | 124.179 | 105.332 | 118.145
